Results on 42 compounds are retold here after patent publication US10287251B2, “Pyrazole derivative or pharmaceutically acceptable salt thereof” (KISSEI PHARMACEUTICAL CO., LTD., priority 2015, dated 2019).

In the first experiment the target is T1, TRPM8 (Rattus norvegicus, UniProt Q8R455).
T1 construct: from tissue; host or cells: whole animal, female SD rats (in vivo)
T1 sequence (Q8R455 whole entry): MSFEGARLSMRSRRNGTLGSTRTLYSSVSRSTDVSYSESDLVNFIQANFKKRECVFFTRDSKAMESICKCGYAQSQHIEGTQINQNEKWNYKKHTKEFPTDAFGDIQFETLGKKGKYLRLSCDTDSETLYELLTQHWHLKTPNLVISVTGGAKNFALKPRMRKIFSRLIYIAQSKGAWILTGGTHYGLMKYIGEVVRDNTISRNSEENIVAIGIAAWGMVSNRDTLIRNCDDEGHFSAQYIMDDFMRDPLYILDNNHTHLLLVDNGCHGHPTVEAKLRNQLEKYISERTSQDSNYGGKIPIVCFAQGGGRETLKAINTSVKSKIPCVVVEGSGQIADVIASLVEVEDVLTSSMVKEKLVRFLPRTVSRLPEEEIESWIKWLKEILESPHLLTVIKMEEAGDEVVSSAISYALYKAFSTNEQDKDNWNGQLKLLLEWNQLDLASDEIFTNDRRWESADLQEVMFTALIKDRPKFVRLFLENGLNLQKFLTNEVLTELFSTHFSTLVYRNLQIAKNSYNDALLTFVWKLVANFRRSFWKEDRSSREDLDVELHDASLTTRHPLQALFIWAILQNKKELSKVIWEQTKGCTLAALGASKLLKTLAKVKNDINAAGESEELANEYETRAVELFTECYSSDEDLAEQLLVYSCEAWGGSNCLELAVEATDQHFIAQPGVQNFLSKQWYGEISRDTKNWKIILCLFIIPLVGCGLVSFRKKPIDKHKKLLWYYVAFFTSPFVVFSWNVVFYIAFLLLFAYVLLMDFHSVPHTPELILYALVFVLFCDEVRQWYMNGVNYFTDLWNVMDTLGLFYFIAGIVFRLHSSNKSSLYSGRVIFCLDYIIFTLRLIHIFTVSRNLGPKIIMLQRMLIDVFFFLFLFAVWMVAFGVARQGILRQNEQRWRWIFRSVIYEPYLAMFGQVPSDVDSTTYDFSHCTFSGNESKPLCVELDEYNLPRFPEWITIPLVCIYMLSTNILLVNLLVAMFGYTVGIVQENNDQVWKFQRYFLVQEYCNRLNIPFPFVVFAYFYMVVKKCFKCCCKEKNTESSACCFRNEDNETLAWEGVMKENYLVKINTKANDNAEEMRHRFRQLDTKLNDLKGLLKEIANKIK
The experiment is described as follows: Confirmation test of inhibitory effects on icilin-induced wet-dog shakes. It counts as in vivo. The settings on record: female SD rats, oral dose 0.3 mg/kg, icilin 1 mg/kg i.p. 1 hour after dosing, shakes counted for 5 minutes. An excerpt:
Further, TRPM8 inhibitory activity can be evaluated by the efficacy inhibiting the wet-dog shake action which is induced by the administration of Icilin, TRPM8 agonist. Furthermore, an effect on overactive bladder (OAB) can be evaluated by an elongation of micturition interval against overactive bladder induced by acetic acid in accordance with a similar method described in J. Urol., 2001, 166, 1142.
Confirmation Test of Inhibitory Effects on Icilin-induced Wet-dog Shakes
Test compounds were dissolved in dimethylacetamide (wako), and 0.5% methylcellulose solution (wako) was added to make the solution or suspension containing 5% of dimethylacetatnide. At a dose of 0.3 to 10 mg/kg/5mL of test compounds were orally administered to female SD rats. After 1 hour, wet-dog shakes were induced by the intraperitoneal injection of icilin (1 mg/kg) which was dissolved in polyethylene glycol 400 (wako). From 5 minutes after the administration of icilin, wet-dog shakes were counted for 5 minutes. For control example, vehicle (a mixture of dimethylacetamide (wako): 0.5% methylcellulose (wako)=5:95) was administrated similarly, and the number of wet-dog shakes was counted in the same manner. A percent inhibition of wet-dog shakes by test compound was calculated from the following formula: [1-(test compound wet-dog shake count/vehicle wet-dog shake count)]×100.
With `CO[C@H](CO)[C@@H](Cc1ncccc1F)NC(=O)c1cccc(F)c1-c1cc(-c2ccc(F)cc2)[nH]n1` [Example 27-20], the “% inhibition of Wet-Dog Shake” value worked out at 56%.
Still for that read-out and setting: the result for `CO[C@H](CO)[C@@H](Cn1nccn1)NC(=O)c1cccc(F)c1-c1n[nH]c(-c2ccc(F)cc2)c1F` [Example 27-30] reads 62%.

The experiment is the same for the next values; noted with them: female SD rats, oral dose 1 mg/kg, icilin 1 mg/kg i.p. 1 hour after dosing, shakes counted for 5 minutes.
For the compound `O=C(N[C@@H]([C@H](O)CO)C(F)(F)c1ccccn1)c1cccc(F)c1-c1cc(-c2ccc(F)cc2)[nH]n1` [Example 1-229], the “% inhibition of Wet-Dog Shake” value was 56%.
The same measure, in the same setting: in the case of `O=C(N[C@@H](CO)C(F)(F)c1ccccn1)c1cccc(F)c1-c1cc(-c2ccc(F)cc2)[nH]n1` [Example 1-230] it was 59%; in that of `CO[C@H](CO)[C@@H](Cc1ncccn1)NC(=O)c1cccc(F)c1-c1cc(-c2ccc(Cl)cc2)[nH]n1` [Example 1-242], 73%; in that of `O=C(N[C@H](Cn1cccn1)[C@H](O)CF)c1cccc(F)c1-c1cc(-c2ccc(F)cc2)[nH]n1` [Example 1-245], 55%.
Still for that read-out and setting: the result for `COC[C@@H](O)[C@@H](Cc1ccccn1)NC(=O)c1cccc(F)c1-c1cc(-c2ccc(F)cc2)[nH]n1` [Example 27-4] reads 72%; that for `CO[C@H](CO)[C@@H](Cc1ncccn1)NC(=O)c1cccc(F)c1-c1n[nH]c(-c2ccc(F)cc2)c1F` [Example 27-18], 86%.
Same read-out and setting: in the case of `CO[C@H](CO)[C@@H](Cc1nccs1)NC(=O)c1cccc(F)c1-c1cc(-c2ccc(F)cc2)[nH]n1` [Example 27-19] it was 80%; in that of `CO[C@H](CO)[C@@H](Cc1cscn1)NC(=O)c1cccc(F)c1-c1cc(-c2ccc(F)cc2)[nH]n1` [Example 27-21], 32%; in that of `CO[C@H](CO)[C@@H](Cn1nccn1)NC(=O)c1cccc(F)c1-c1cc(-c2ccc(F)cc2)[nH]n1` [Example 27-22], 100%.
Take `O=C(N[C@@H](CCO)Cc1ccccn1)c1cccc(F)c1-c1n[nH]c(-c2ccc(F)cc2)c1F` [Example 28-1, 3-Fluoro-2-[4-fluoro-5-(4-fluorophenyl)-1H-pyrazol-3-yl]-N-[(2R)-4-hydroxy-1-(pyridin-2-yl)butan-2-yl]benzamide]: the “% inhibition of Wet-Dog Shake” value is on record as 62%.
Same read-out and setting: the result for `CC(C)(O)[C@@H](Cc1ccccn1)NC(=O)c1cccc(F)c1-c1n[nH]c(-c2ccc(F)cc2)c1F` [Example 33-2] reads 88%.

Still in this experiment, the particulars now being: female SD rats, oral dose 3 mg/kg, icilin 1 mg/kg i.p. 1 hour after dosing, shakes counted for 5 minutes.
With `C[C@](O)(CO)[C@@H](Cc1ccccn1)NC(=O)c1cccc(F)c1-c1cc(-c2ccc(Cl)cc2)[nH]n1` [Example 1-219], the “% inhibition of Wet-Dog Shake” value is 45%.
Same read-out and setting: the result for `O=C(N[C@@H](CCO)Cc1ccccn1)c1ccccc1-c1n[nH]c(-c2ccc(Cl)cc2)c1F` [Example 1-223] reads 100%; that for `C[C@@](O)(CO)[C@@H](Cc1ccccn1)NC(=O)c1cccc(F)c1-c1cc(-c2ccc(F)cc2)[nH]n1` [Example 1-224], 82%; that for `C[C@@](O)(CO)[C@@H](Cc1ccccn1)NC(=O)c1cccc(Cl)c1-c1cc(-c2ccc(F)cc2)[nH]n1` [Example 1-225], 37%.
In the case of `O=C(N[C@H](Cn1cccn1)[C@H](O)CO)c1cccc(F)c1-c1cc(-c2ccc(F)cc2)[nH]n1` [Example 1-226], the “% inhibition of Wet-Dog Shake” value stood at 53%.
For the compound `C[C@@](O)(CO)[C@@H](Cc1ccccn1)NC(=O)c1ccccc1-c1cc(-c2ccc(F)cc2)[nH]n1` [Example 1-228], the “% inhibition of Wet-Dog Shake” value is on record as 97%.
On the same count and under the same terms, in the case of `O=C(N[C@@H](CO)C(F)c1ccccn1)c1cccc(F)c1-c1cc(-c2ccc(F)cc2)[nH]n1` (stereo partly drawn) [Example 1-231] it was 88%.
The same measure, in the same setting: the result for `CC(O)(c1ccccn1)[C@H](CO)NC(=O)c1cccc(F)c1-c1cc(-c2ccc(F)cc2)[nH]n1` (stereo partly drawn) [Example 1-241] reads 100%; that for `C[C@@](Cc1ccccc1)(NC(=O)c1cccc(F)c1-c1cc(-c2ccc(F)cc2)[nH]n1)C(N)=O` [Example 24-1, (2S)-2-{3-Fluoro-2-[5-(4-fluorophenyl)-1H-pyrazol-3-yl]benzoylamino}-2-methyl-3-phenylpropanamide], 71%; that for `C[C@@](Cc1ccccc1)(NC(=O)c1ccccc1-c1cc(-c2ccc(F)cc2)[nH]n1)C(N)=O` [Example 24-3], 46%.
Same read-out and setting: in the case of `C[C@](CCO)(Cc1ccccn1)NC(=O)c1cccc(F)c1-c1cc(-c2ccc(F)cc2)[nH]n1` [Example 24-4] it was 31%; in that of `C[C@@](Cc1ccccn1)(NC(=O)c1cccc(F)c1-c1cc(-c2ccc(F)cc2)[nH]n1)C(N)=O` [Example 24-7], 56%; in that of `O=C(NC(CCO)Cc1ccccn1)c1cccc(F)c1-c1cc(-c2ccc(F)cc2)[nH]n1` (stereo not drawn) [Example 26-1, 3-Fluoro-2-[5-(4-fluorophenyl)-1H-pyrazol-3-yl]-N-[4-hydroxy-1-(pyridin-2-yl)butan-2-yl]benzamide], 89%.
For the compound `O=C(NC(CCO)Cc1ccccn1)c1ccccc1-c1cc(-c2ccc(F)cc2)[nH]n1` (stereo not drawn) [Example 26-2], the “% inhibition of Wet-Dog Shake” value is recorded as 69%.
On to `COC[C@@H](O)[C@@H](Cc1ccccn1)NC(=O)c1cccc(Cl)c1-c1cc(-c2ccc(F)cc2)[nH]n1` [Example 27-5], for which the “% inhibition of Wet-Dog Shake” value is given as 52%.
Still for that read-out and setting: the result for `CO[C@H](CO)[C@@H](Cc1ncccc1C#N)NC(=O)c1cccc(F)c1-c1cc(-c2ccc(F)cc2)[nH]n1` [Example 27-16] reads 56%.
Same read-out and setting: in the case of `CO[C@@H](CO)[C@@H](Cn1cccn1)NC(=O)c1cccc(F)c1-c1cc(-c2ccc(F)cc2)[nH]n1` [Example 27-17] it was 86%; in that of `CO[C@@H](CO)[C@@H](Cn1cccn1)NC(=O)c1cccc(F)c1-c1n[nH]c(-c2ccc(F)cc2)c1F` [Example 27-24], 99%; in that of `CO[C@H](CO)[C@@H](Cn1cc(Cl)cn1)NC(=O)c1cccc(F)c1-c1cc(-c2ccc(F)cc2)[nH]n1` [Example 27-29], 47%.
The same measure, in the same setting: in the case of `O=C(N[C@H](Cc1ncccn1)[C@@H](O)CO)c1cccc(F)c1-c1cc(-c2ccc(F)cc2)[nH]n1` [Example 31-1, N-[(2R,3R)-3,4-Dihydroxy-1-(pyrimidin-2-yl)butan-2-yl]-3-fluoro-2-[5-(4-fluorophenyl)-1H-pyrazol-3-yl]benzamide] it was 36%; in that of `CC(C)(O)[C@@H](Cc1ccccn1)NC(=O)c1cccc(F)c1-c1cc(-c2ccc(F)cc2)[nH]n1` [Example 33-1, 3-Fluoro-2-[-5-(4-fluorophenyl)-1H-pyrazol-3-yl]-N-[(2R)-3-hydroxy-3-methyl-1-(pyridin-2-yl)butan-2-yl]benzamide], 100%.
In the case of `CC(C)(O)[C@@H](Cc1ccccn1)NC(=O)c1cccc(Cl)c1-c1cc(-c2ccc(F)cc2)[nH]n1` [Example 33-3], the “% inhibition of Wet-Dog Shake” value is given as 32%.
Same read-out and setting: the result for `CC(C)(O)[C@@H](Cc1ccccn1)NC(=O)c1cccc(F)c1-c1cc(-c2ccc(Cl)cc2)[nH]n1` [Example 34-1HP, 2-[-5-(4-Chlorophenyl)-1H-pyrazol-3-yl]-3-fluoro-N-[(2R)-3-hydroxy-3-methyl-1-(pyridin-2-yl)butan-2-yl]benzamide] reads 92%; that for `CC(CO)(CO)[C@@H](Cc1ccccn1)NC(=O)c1cccc(F)c1-c1cc(-c2ccc(Cl)cc2)[nH]n1` [Example 35-1, 2-[5-(4-Chlorophenyl)-1H-pyrazol-3-yl]-3-fluoro-N-[(2R)-4-hydroxy-3-(hydroxymethyl)-3-methyl-1-(pyridin-2-yl)butan-2-yl]benzamide], 42%; that for `O=C(N[C@H](Cc1ccccn1)C(CO)CO)c1cccc(F)c1-c1cc(-c2ccc(F)cc2)[nH]n1` [Example 35-3], 69%.
As to `O=C(N[C@@H](CCO)Cc1ccccn1)c1cccc(Cl)c1-c1cc(-c2ccc(F)cc2)[nH]n1` [Example 36-1, 3-Chloro-2-[5-(4-fluorophenyl)-1H-pyrazol-3-yl]-N-[(2R)-4-hydroxy-1-(pyridin-2-yl)butan-2-yl]benzamide], the “% inhibition of Wet-Dog Shake” value stood at 39%.
Still for that read-out and setting: the result for `C[C@@](CO)(Cc1ccccn1)NC(=O)c1cccc(F)c1-c1cc(-c2ccc(F)cc2)[nH]n1` [Example 36-2] reads 72%.

Still in this experiment, the particulars now being: female SD rats, oral dose 10 mg/kg, icilin 1 mg/kg i.p. 1 hour after dosing, shakes counted for 5 minutes.
Consider `O=C(NCCc1ccccn1)c1cccc(OC(F)(F)F)c1-c1cc(-c2ccccc2)[nH]n1` [Example 4-1, 2-(5-Phenyl-1H-pyrazol-3-yl)-N-[2-(pyridin-2-yl)ethyl]-3-trifluoromethoxybenzamide], for which the “% inhibition of Wet-Dog Shake” value is recorded as 70%.
Still for that read-out and setting: the result for `NC[C@@H](Cc1ccccn1)NC(=O)c1ccccc1-c1cc(-c2ccc(F)c(F)c2)[nH]n1` [Example 16-11] reads 51%.
